Converted amounts (≈) assume the structure as drawn.
Experiments:
[1] = Antibacterial activity against Salmonella enterica serovar Choleraesuis by broth microdilution method; assay type: functional, Salmonella enterica subsp. enterica serovar Choleraesuis
Vibrio parahaemolyticus [2] = test: Antibacterial activity against Vibrio parahaemolyticus by broth microdilution method; assay type: functional
Vibrio vulnificus [3] = test: Antibacterial activity against Vibrio vulnificus assessed as percent resistant isolates by broth microdilution method; assay type: functional
Escherichia coli [4] = test: Antibacterial activity against Escherichia coli assessed as growth inhibition at 2 ug/ml by broth microdilution method; assay type: functional
Salmonella typhi = test: Antibacterial activity against Salmonella enterica serovar Typhi by broth microdilution method; assay type: functional, Salmonella enterica subsp. enterica serovar Typhi
Campylobacter sp. [5] = test: Antibacterial activity against Campylobacter sp. assessed as growth inhibition at 0.06 ug/ml by broth microdilution method; assay type: functional
Salmonella sp. [6] = test: Antibacterial activity against Salmonella sp. assessed as growth inhibition at 0.008 ug/ml by broth microdilution method; assay type: functional
Salmonella enteritidis = test: Antibacterial activity against Salmonella enterica serovar Enteritidis assessed as percent susceptible isolates by broth microdilution method; assay type: functional, Salmonella enterica subsp. enterica serovar Enteritidis; details: pooled result: one value given for 5 cell lines, strains, targets or settings
Vibrio sp. [7] = test: Antibacterial activity against Vibrio sp. assessed as percent susceptible isolates by broth microdilution method; assay type: functional
Escherichia coli [8] = test: microbe, parasite or virus in culture; assay type: functional
Escherichia coli [9] = test: Antibacterial activity against Escherichia coli assessed as growth inhibition at =>4 ug/ml by broth microdilution method; assay type: functional
Yersinia sp. [10] = test: Antibacterial activity against Yersinia sp. assessed as growth inhibition at 0.016 ug/ml by broth microdilution method; assay type: functional; details: Yersinia sp. (in: enterobacteria)
Salmonella sp. [11] = test: Antibacterial activity against Salmonella sp. assessed as growth inhibition at 0.004 ug/ml by broth microdilution method; assay type: functional
Escherichia coli [12] = test: Antibacterial activity against Escherichia coli assessed as percent susceptible isolates by broth microdilution method; assay type: functional
Yersinia enterocolitica = test: Antibacterial activity against Yersinia enterocolitica assessed as percent resistant isolates by broth microdilution method; assay type: functional
Escherichia coli [13] = test: Antibacterial activity against Escherichia coli assessed as growth inhibition at 0.016 ug/ml by broth microdilution method; assay type: functional
Aeromonas sobria [14] = test: Antibacterial activity against Aeromonas sobria assessed as percent resistant isolates by broth microdilution method; assay type: functional
Vibrio parahaemolyticus [15] = test: Antibacterial activity against Vibrio parahaemolyticus assessed as percent susceptible isolates by broth microdilution method; assay type: functional
Salmonella sp. [16] = test: Antibacterial activity against Salmonella sp. assessed as growth inhibition at 0.06 ug/ml by broth microdilution method; assay type: functional
Campylobacter sp. [17] = test: Antibacterial activity against Campylobacter sp. assessed as growth inhibition at 0.004 ug/ml by broth microdilution method; assay type: functional
Shigella sonnei [18] = test: Antibacterial activity against Shigella sonnei assessed as percent resistant isolates by broth microdilution method; assay type: functional; details: pooled result: one value given for 4 cell lines, strains, targets or settings
Escherichia coli [19] = test: Antibacterial activity against enterotoxigenic Escherichia coli assessed as percent resistant isolates by broth microdilution method; assay type: functional
Campylobacter sp. [20] = test: Antibacterial activity against Campylobacter sp. assessed as growth inhibition at 0.008 ug/ml by broth microdilution method; assay type: functional
Escherichia coli [21] = test: Antibacterial activity against enteropathogenic Escherichia coli assessed as percent susceptible isolates by broth microdilution method; assay type: functional
Vibrio alginolyticus = test: Antibacterial activity against Vibrio alginolyticus assessed as percent resistant isolates by broth microdilution method; assay type: functional
Shigella sonnei [22] = test: Antibacterial activity against Shigella sonnei by broth microdilution method; assay type: functional
Vibrio vulnificus [23] = test: Antibacterial activity against Vibrio vulnificus by broth microdilution method; assay type: functional
Shigella dysenteriae [24] = test: Antibacterial activity against Shigella dysenteriae assessed as percent susceptible isolates by broth microdilution method; assay type: functional
Escherichia coli [25] = test: Antibacterial activity against Escherichia coli assessed as growth inhibition at 0.03 ug/ml by broth microdilution method; assay type: functional
Shigella dysenteriae [26] = test: Antibacterial activity against Shigella dysenteriae by broth microdilution method; assay type: functional
Aeromonas hydrophila = test: Antibacterial activity against Aeromonas hydrophila assessed as percent susceptible isolates by broth microdilution method; assay type: functional
[27] = test system: Yersinia pseudotuberculosis; test: Antibacterial activity against Yersinia pseudotuberculosis assessed as percent susceptible isolates by broth microdilution method; assay type: functional
Plesiomonas shigelloides = test: Antibacterial activity against Plesiomonas shigelloides assessed as growth inhibition at 0.004 ug/ml by broth microdilution method; assay type: functional
Yersinia sp. [28] = test: Antibacterial activity against Yersinia sp. assessed as growth inhibition at 0.008 ug/ml by broth microdilution method; assay type: functional; details: Yersinia sp. (in: enterobacteria)
Escherichia coli [29] = test: Antibacterial activity against blood-borne Escherichia coli assessed as percent susceptible isolates by broth microdilution method; assay type: functional
Campylobacter jejuni [30] = test: Antibacterial activity against Campylobacter jejuni assessed as percent susceptible isolates by broth microdilution method; assay type: functional; details: pooled result: one value given for 2 cell lines, strains, targets or settings
Campylobacter jejuni [31] = test: Antibacterial activity against Campylobacter jejuni by broth microdilution method; assay type: functional
Vibrio vulnificus [32] = test: Antibacterial activity against Vibrio vulnificus assessed as percent susceptible isolates by broth microdilution method; assay type: functional
Vibrio sp. [33] = test: Antibacterial activity against Vibrio sp. assessed as percent resistant isolates by broth microdilution method; assay type: functional
Escherichia coli [34] = test: Antibacterial activity against enterotoxigenic Escherichia coli assessed as percent susceptible isolates by broth microdilution method; assay type: functional
Shigella sp. = test: Antibacterial activity against Shigella sp. assessed as growth inhibition at =<0.002 ug/ml by broth microdilution method; assay type: functional
Aeromonas sobria [35] = test: Antibacterial activity against Aeromonas sobria by broth microdilution method; assay type: functional
Aeromonas caviae = test: Antibacterial activity against Aeromonas caviae assessed as percent resistant isolates by broth microdilution method; assay type: functional
Escherichia coli [36] = test: Antibacterial activity against Escherichia coli assessed as growth inhibition at 0.12 ug/ml by broth microdilution method; assay type: functional

CC1Sc2c(C(=O)O)c(=O)c3cc(F)c(N4CCNCC4)cc3n21 (stereo not given) [ULIFLOXACIN]
MIC50 [1]: 8 ng/mL (≈ 0.0229 µM) | MIC90 [1]: 30 ng/mL (≈ 0.0859 µM) | MIC50 (Vibrio parahaemolyticus [2]): 16 ng/mL (≈ 0.0458 µM) | MIC90 (Vibrio parahaemolyticus [2]): 30 ng/mL (≈ 0.0859 µM) | Activity (Vibrio vulnificus [3]): 0% | inhibition at 2 µg/mL (Escherichia coli [4]): 97% | MIC50 (Salmonella typhi): 8 ng/mL (≈ 0.0229 µM) | MIC90 (Salmonella typhi): 30 ng/mL (≈ 0.0859 µM) | inhibition at 0.06 µg/mL (Campylobacter sp. [5]): 77% | inhibition at 0.008 µg/mL (Salmonella sp. [6]): 65% | Activity (Salmonella enteritidis): 100% | Activity (Vibrio sp. [7]): 100% | MIC50 (Escherichia coli [8]): 8 ng/mL (≈ 0.0229 µM) | MIC90 (Escherichia coli [8]): 8 ng/mL (≈ 0.0229 µM) | MIC50 (Escherichia coli [8]; Escherichia coli, read-out: MIC50): 8 ng/mL (≈ 0.0229 µM) | MIC90 (Escherichia coli [8]; Escherichia coli, read-out: MIC90): 8 ng/mL (≈ 0.0229 µM) | inhibition (INH) (Escherichia coli [9]): 100% | inhibition at 0.016 µg/mL (Yersinia sp. [10]): 93% | inhibition at 0.004 µg/mL (Salmonella sp. [11]): 10% | Activity (Escherichia coli [12]): 97% | Activity (Yersinia enterocolitica): 0% | inhibition at 0.016 µg/mL (Escherichia coli [13]): 94% | Activity (Aeromonas sobria [14]): 2% | Activity (Vibrio parahaemolyticus [15]): 100% | inhibition at 0.06 µg/mL (Salmonella sp. [16]): 97% | inhibition at 0.004 µg/mL (Campylobacter sp. [17]): 0% | Activity (Shigella sonnei [18]): 0% | Activity (Escherichia coli [19]): 0% | inhibition at 0.008 µg/mL (Campylobacter sp. [20]): 2% | Activity (Escherichia coli [21]): 100% | Activity (Vibrio alginolyticus): 0% | MIC50 (Shigella sonnei [22]): 4 ng/mL (≈ 0.0114 µM) | MIC90 (Shigella sonnei [22]): 8 ng/mL (≈ 0.0229 µM) | MIC50 (Vibrio vulnificus [23]): 16 ng/mL (≈ 0.0458 µM) | MIC90 (Vibrio vulnificus [23]): 30 ng/mL (≈ 0.0859 µM) | Activity (Shigella dysenteriae [24]): 100% | inhibition at 0.03 µg/mL (Escherichia coli [25]): 96% | MIC50 (Shigella dysenteriae [26]): 4 ng/mL (≈ 0.0114 µM) | MIC90 (Shigella dysenteriae [26]): 8 ng/mL (≈ 0.0229 µM) | Activity (Aeromonas hydrophila): 98% | Activity [27]: 100% | inhibition at 0.004 µg/mL (Plesiomonas shigelloides): 75% | inhibition at 0.008 µg/mL (Yersinia sp. [28]): 56% | Activity (Escherichia coli [29]): 90% | Activity (Campylobacter jejuni [30]): 84.4% | MIC50 (Campylobacter jejuni [31]): 30 ng/mL (≈ 0.0859 µM) | MIC90 (Campylobacter jejuni [31]): > 2000 ng/mL | Activity (Vibrio vulnificus [32]): 100% | Activity (Vibrio sp. [33]): 0% | Activity (Escherichia coli [34]): 100% | inhibition (INH) (Shigella sp.): 1% | MIC50 (Aeromonas sobria [35]): 4 ng/mL (≈ 0.0114 µM) | MIC90 (Aeromonas sobria [35]): 60 ng/mL (≈ 0.172 µM) | Activity (Aeromonas caviae): 2% | inhibition at 0.12 µg/mL (Escherichia coli [36]): 97%

From ChEMBL document CHEMBL1629662, “Antimicrobial activity of prulifloxacin tested against a worldwide collection of gastroenteritis-producing pathogens, including those causing traveler's diarrhea” (2009)
